What all share (format): cell-based
The target in assay [1] is T1, NLRP3 (Homo sapiens, UniProt Q96P20). In words: THP-1 cells pyroptosis assay. The arrangement: Seed THP-1 cells (25,000 cells/well) containing 10 μg/ml LPS; host or cells: THP-1 cells. The settings on record: LPS primed, nigericin 5 μM, resazurin read-out. As to the method:
Therefore, it is anticipated that inhibitors of NLRP3 will block pyroptosis, as well as the release of pro-inflammatory cytokines (e.g. IL-1B) from the cell.
On the day of the experiment, THP-1 cells were harvested and resuspended into RPMI medium (without FBS). The cells were then counted and viability (>90%) checked by Trypan blue (Sigma #T8154). […] To this diluted cell solution was added LPS (Sigma #L4524) to give a 1 μg/ml Final Assay Concentration (FAC). 40 μl of the final preparation was aliquoted into each well of a 96-well plate. The plate thus prepared was used for compound screening.
The following method step-by-step assay was followed for compound screening. • 1. […] Incubate for 3 hours at 37° C., 5% CO2 • 4. Add 5 μl nigericin (Sigma #N7143) (FAC 5 μM) to all wells • 5. Incubate for 1 hr at 37° C., 5% CO2 • 6. At the end of the incubation period, spin plates at 300 xg for 3 mins and remove supernatant • 7. […] IC50 data is fitted to a non-linear regression equation (log inhibitor vs response-variable slope 4-parameters)
A general note: Alamar Blue is a resazurin reagent that responds to reducing activity.

Assay [2] addresses T1, NLRP3. In words: Human whole blood IL-1β release assay. The arrangement: Human whole blood in Li-heparin tubes was obtained from healthy donors; from tissue; host or cells: human whole blood from healthy donors. The settings on record: LPS 1 μg/ml, nigericin 10 μM, IL-1β by AlphaLisa.
Method: Human whole blood in Li-heparin tubes was obtained from healthy donors from a volunteer donor panel. • 1. […] Incubate for 3 hours at 37° C., 5% CO2 • 4. Add 10 μl nigericin (Sigma #N7143) (10 μM FAC) to all wells • 5. Incubate for 1 hr at 37° C., 5% CO2 • 6. At the end of the incubation period, spin plates at 300 xg for 5 mins to pellet cells and remove 20 μl of supernatant and add to 96-well v-bottom plates for IL-1β analysis (note: these plates containing the supernatants can be stored at −80° C. to be analysed at a later date) • 7. IL-1β was measured according to the manufacturer protocol (Perkin Elmer-AlphaLisa IL-1 Kit AL220F-5000) • 8. IC50 data is fitted to a non-linear regression equation (log inhibitor vs response-variable slope 4-parameters)
The target of assay [3] is T2, hERG cardiac potassium channel (Homo sapiens, UniProt Q12809).
T2 construct: host or cells: CHO crelox hERG cell line (Chinese hamster)
In words: hERG screening assay (automated patch clamp, CHO crelox hERG cells). The settings on record: whole-cell patch clamp at 35-37° C. As to the method: Ready-to-use frozen instant CHO-hERG cells were cryopreserved at Evotec (Germany) and used directly in the experiments.
The internal solution contains (in mM): KCl, 10; KF, 100; NaCl, 10; HEPES, 10; EGTA, 20; pH=7.0-7.4 with KOH, osmolarity 260-300 mOsm.
The effects of a compound on hERG K+-currents parameters will be evaluated at 2 concentrations in at least 4 cells.
K+ currents are measured with the patch-voltage-clamp technique in the whole-cell configuration at 35-37° C.
The amplitudes of IKhERG were recorded in each concentration of drug and they were compared to the vehicle control values (taken as 100%) to define fractional blocks. The concentration-response data were fitted with the following relationship:
Concentration-response curves were fitted by non-linear regression analysis using EworkBook suite (ID Business Solutions Ltd, UK). Data fit was done with the 4 Parameter Logistic Model (fit=(A+(B/(1+((x/C)^D)))), where A=0 and B=100).
In the drug development process of small molecules, one of the most frequent adverse side effects, leading to the failure of drugs, is the cardiac arrhythmias. Such failure is often related to the capacity of the drug to inhibit the human ether-à-go-go-related gene (hERG) cardiac potassium channel. Having no or low inhibition of the hERG cardiac potassium channel is therefore considered as beneficial.

T1 sequence (Q96P20 whole entry): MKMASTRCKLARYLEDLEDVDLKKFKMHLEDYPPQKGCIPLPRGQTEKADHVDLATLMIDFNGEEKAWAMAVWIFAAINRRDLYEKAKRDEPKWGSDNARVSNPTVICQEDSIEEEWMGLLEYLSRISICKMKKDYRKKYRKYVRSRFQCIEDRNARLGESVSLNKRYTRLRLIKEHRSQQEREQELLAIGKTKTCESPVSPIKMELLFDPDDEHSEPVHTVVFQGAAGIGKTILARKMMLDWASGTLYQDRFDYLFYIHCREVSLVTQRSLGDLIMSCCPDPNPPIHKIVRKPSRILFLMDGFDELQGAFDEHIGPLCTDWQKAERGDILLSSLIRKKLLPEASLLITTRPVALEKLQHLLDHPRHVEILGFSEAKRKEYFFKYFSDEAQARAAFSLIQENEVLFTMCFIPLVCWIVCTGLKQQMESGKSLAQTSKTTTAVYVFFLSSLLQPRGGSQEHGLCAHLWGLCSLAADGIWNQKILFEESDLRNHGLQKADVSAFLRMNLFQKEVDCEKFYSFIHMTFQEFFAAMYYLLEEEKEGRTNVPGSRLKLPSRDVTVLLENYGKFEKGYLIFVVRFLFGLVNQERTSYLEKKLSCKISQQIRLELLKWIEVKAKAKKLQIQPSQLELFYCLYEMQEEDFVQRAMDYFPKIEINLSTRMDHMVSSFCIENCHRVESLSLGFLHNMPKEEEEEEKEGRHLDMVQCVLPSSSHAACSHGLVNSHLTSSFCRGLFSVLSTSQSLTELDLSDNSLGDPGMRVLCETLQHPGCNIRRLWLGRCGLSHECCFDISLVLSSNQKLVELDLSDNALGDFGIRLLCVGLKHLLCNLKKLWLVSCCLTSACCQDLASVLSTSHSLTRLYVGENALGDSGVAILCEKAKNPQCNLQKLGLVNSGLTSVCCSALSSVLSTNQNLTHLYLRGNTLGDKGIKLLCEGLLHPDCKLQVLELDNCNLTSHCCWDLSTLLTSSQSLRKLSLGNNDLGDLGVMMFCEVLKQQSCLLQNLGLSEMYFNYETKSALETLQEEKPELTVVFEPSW
T2 sequence (Q12809 whole entry): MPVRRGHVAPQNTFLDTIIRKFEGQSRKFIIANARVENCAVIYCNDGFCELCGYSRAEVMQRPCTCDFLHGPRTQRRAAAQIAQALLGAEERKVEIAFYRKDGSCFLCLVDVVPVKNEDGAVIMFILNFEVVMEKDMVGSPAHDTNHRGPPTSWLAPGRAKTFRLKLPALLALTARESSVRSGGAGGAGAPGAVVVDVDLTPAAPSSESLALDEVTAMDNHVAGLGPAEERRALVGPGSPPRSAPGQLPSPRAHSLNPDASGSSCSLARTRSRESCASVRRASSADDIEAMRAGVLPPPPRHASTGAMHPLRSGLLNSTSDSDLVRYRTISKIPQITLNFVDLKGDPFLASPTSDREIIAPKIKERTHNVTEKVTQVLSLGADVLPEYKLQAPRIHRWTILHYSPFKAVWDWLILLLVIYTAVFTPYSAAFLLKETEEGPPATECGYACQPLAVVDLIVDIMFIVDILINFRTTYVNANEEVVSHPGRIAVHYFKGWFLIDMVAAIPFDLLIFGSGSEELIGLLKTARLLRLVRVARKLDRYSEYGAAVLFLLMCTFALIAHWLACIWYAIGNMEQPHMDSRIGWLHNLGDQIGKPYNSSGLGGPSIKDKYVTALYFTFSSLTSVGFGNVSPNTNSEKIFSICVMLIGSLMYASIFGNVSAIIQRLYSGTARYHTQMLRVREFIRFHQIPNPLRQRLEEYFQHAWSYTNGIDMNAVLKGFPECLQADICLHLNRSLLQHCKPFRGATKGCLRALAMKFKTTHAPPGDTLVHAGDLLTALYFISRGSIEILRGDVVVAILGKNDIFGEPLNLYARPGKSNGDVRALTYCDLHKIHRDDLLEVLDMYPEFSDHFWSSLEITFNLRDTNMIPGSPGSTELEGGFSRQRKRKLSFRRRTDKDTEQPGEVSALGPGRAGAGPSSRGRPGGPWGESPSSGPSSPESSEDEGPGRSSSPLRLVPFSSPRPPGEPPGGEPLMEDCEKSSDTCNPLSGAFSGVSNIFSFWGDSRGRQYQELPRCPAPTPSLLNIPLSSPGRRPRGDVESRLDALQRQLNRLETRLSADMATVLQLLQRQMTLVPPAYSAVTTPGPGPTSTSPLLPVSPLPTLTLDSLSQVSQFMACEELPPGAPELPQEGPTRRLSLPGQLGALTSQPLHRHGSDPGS

In general, IC50 refers to the midpoint of a concentration-inhibition curve. For the compound `CCN1CCC2CCN(c3ccc(-c4c(C)cc(C#N)cc4O)nn3)C2C1` (single isomer, unassigned) [Example 6A, 4-[6-[(3aS,7aR)-6-Ethyl-3,3a,4,5,7,7a-hexahydro-2H-pyrrolo[2,3-c]pyridin-1-yl]pyridazin-3-yl]-3-hydroxy-5-methyl-benzonitrile or 4-[6-[(3aR,7aS)-6-ethyl-3,3a,4,5,7,7a-hexahydro-2H-pyrrolo[2,3-c]pyridin-1-yl]pyridazin-3-yl]-3-hydroxy-5-methyl-benzonitrile], the IC50 in assay [1] is 3.9 nM; in assay [2] it was 14.9 nM.

`CCN1CCC2CCN(c3ccc(-c4c(C)cc(C#N)cc4O)nn3)C2C1` (single isomer, unassigned) [Example 6B, 4-[6-[(3aR,7aS)-6-Ethyl-3,3a,4,5,7,7a-hexahydro-2H-pyrrolo[2,3-c]pyridin-1-yl]pyridazin-3-yl]-3-hydroxy-5-methyl-benzonitrile or 4-[6-[(3aS,7aR)-6-ethyl-3,3a,4,5,7,7a-hexahydro-2H-pyrrolo[2,3-c]pyridin-1-yl]pyridazin-3-yl]-3-hydroxy-5-methyl-benzonitrile]: in assay [1], the IC50 is 763 nM.

`CCN1CCC[C@@H](Nc2cc(C)c(-c3ccc(C#N)cc3O)nn2)C1` [Example 1, 4-[6-[[(3R)-1-Ethyl-3-piperidyl]amino]-4-methyl-pyridazin-3-yl]-3-hydroxy-benzonitrile; formic acid]: the IC50 in assay [1] was 3.1 nM; in assay [3], above 20000 nM; in assay [2], 3.2 nM.

Turning to `CCN1CCC[C@@H](Nc2cc(C(F)(F)F)c(-c3ccc(C#N)cc3O)nn2)C1` [Example 3, 4-[6-[[(3R)-1-Ethyl-3-piperidyl]amino]-4-(trifluoromethyl)pyridazin-3-yl]-3-hydroxy-benzonitrile], the IC50 in assay [1] was determined as 73.1 nM; in assay [2] it was 51.8 nM.

Take `Cc1cc(N[C@H]2C[C@@](C)(O)C2)nnc1-c1ccc(C#N)cc1O` [Example 4, 3-Hydroxy-4-[6-[(3-hydroxy-3-methyl-cyclobutyl)amino]-4-methyl-pyridazin-3-yl]benzonitrile]: the IC50 in assay [1] came out at 823 nM.

Source of the values: patent publication US20240308977A1, “PYRIDAZINE DERIVATIVES AS INHIBITORS OF NLRP3” (Hoffmann-La Roche Inc., priority 2021, published 2024).
